Reference: patent US20170165317A1, “METHOD FOR MITIGATING OR ALLEVIATING SYNAPTIC AND COGNITIVE DEFICITS” (Trustees of Dartmouth College, priority 2013, published 2017)

Legend:
APP/PS1 mice = assay: Hippocampal APP, C-terminal fragments, Aβ monomers and SDS-resistant Aβ assemblies after in vivo treatment (western blot, ELISA); parameters: species or system mouse; conditions: after VO-OHpic treatment, end of last behavioural test
Protocol: Hippocampal slices overexpressing Aβ were maintained for 3 days after virus injection with or without the PTEN inhibitor VO-OHpic, before culture medium was collected for measurements. Aβ40 and Aβ42 level were determined in solubilized hippocampal fractions, cultured hippocampal slices or conditioned media by ELISA according to the manufacturer's instructions (WAKO/Invitrogen) that specifically detect the C-terminus of Aβ40 and Aβ42, respectively.
Hippocampi from APP/PS1 mice or their wild-type littermates and organotypic hippocampal slices infected with APPswe/lnd-EGFP/APPwt-EGFP/APPMV-EGFP were solubilized, and extracts were prepared for western blot analysis. Mouse brains or brain sections were homogenized on ice in RIPA buffer (1% TRITON X-100, 1% sodium deoxycholate, 0.1% SDS, 150 mM NaCl, 50 mM Tris-HCl, pH 7.2), using an ULTRATURRAX T25 (Janke & Kunkel). Samples were centrifuged at 15,000×g, and supernatants were used for protein determination. APPsα was detected in conditioned media of the respective slices using antibody 6E10 that selectively detects human APPsα. Levels of APP, CTFα and CTFβ were detected in lysates of the infected slices using APPCt antibody.
After the end of the last test, the levels of APP and its C-terminal fragments (western blot), Aβ monomers (ELISA), and SDS-resistant. Aβ assemblies (SDS-PAE) were measured from the hippocampus of each mouse. […]

[1] = system: hippocampal CA3 and CA1 cells from acute slices; assay: fEPSP input-output curve (basal synaptic transmission) in acute hippocampal slices exposed to protofibrillar Aβ42; format: cell-based, mice
Protocol: Mice were anesthetized with sodium pentothal (20 mg/kg ip) and decapitated. The brain was rapidly removed to ice-cold, oxygenated, dissection solution. Coronal slices (300 μm) were made with a vibratome (LEICA VT1200S) and slices were moved to a recovery chamber containing aCSF at room temperature for at least 1.5 hour before recording.
A concentric bipolar platinum-iridium stimulation electrode and a low-resistance glass recording microelectrode filled with aCSF (3-4 MΩ resistance) were placed in CA1 stratum radiatum to record the extracellular field excitatory postsynaptic potentials (fEPSPs). For each slice, an input-output curve was recorded to compare basal synaptic transmission at different conditions. This curve was also used to set the baseline fEPSP at ≈30% (for LTP experiments) or ≈50% (for LTD experiments) of maximal slope. Baseline stimulation was delivered every 15 seconds (0.01 ms duration pulses) for at least 20 minutes before beginning the experiment to ensure stability of the response. LTP was induced by using θ-burst stimulation (4 pulses at 100 Hz, with the bursts repeated at 5 Hz and each tetanus including three 10-burst trains separated by 15 seconds). LTD was induced using 900 pulses at 1 Hz. Responses were recorded for 1 hour after induction of LTP or LTD.
Dissection solution (employed for slicing) composition: 10 mM D-glucose, 4 mM KCl, 26 mM NaHCO3, 233.7 mM sucrose, 5 mM MgCl2, 1:1000 Phenol Red. Artificial CSF (employed for recovery and recording) composition: 119 mM NaCl, 2.5 mM KCl, 1 mM NaH2PO4, 11 mM glucose, 1.2 mM MgCl2, 2.5 mM CaCl2. Osmolarity was adjusted to […].
For the first approach, protofibrillar Aβ was prepared by promoting aggregation under high-salt conditions (258 μM Aβ42, room temperature incubation (Jan, et al. (2010) Nat. Protoc. 5:1186-1209). The kinetics of Aβ42 aggregation were followed by thioflavin T fluorescence and SDS-PAGE western blot analysis with the N-terminal anti-Aβ antibody 6E10. Also, the heterogeneous nature of these Aβ42 assemblies was evidenced by electron microscopy. Synaptic function was assessed by electrophysiological recordings of field excitatory postsynaptic potential (fEPSPs) between hippocampal CA3 and CA1 cells from acute slices prepared from 5-month-old mice. The results indicated a ≈60% decrease in the magnitude of synaptic transmission (input-output curve) when slices were incubated for 2 hours in aCSF containing pathogenic protofibrillar Aβ42 species (1 μM). This decrease in the basal synaptic transmission was prevented when Aβ was added to slices that were preincubated with the PTEN inhibitor (50 nM VO-OHpic) for 1 hour (VO-OHpic and Aβ were also present in the perfusion solution during electrophysiological recordings). VO-OHpic alone had no effect on basal synaptic transmission. […] The potency and specificity of this inhibitor have been documented previously (Rosivatz, et al. (2006) ACS Chem. Biol. 1:780-790).
The effect of these peptides on Aβ-treated neurons was subsequently tested.

## O=C(O)c1ncccc1O.O=C(O)c1ncccc1O.[O]=[V][O-] [VO-OHpic]
APP/PS1 mice
  levels of APP and its C-terminal fragments, Aβ monomers and SDS-resistant Aβ assemblies in hippocampus: No changes were detected
[1]; 50 nM VO-OHpic preincubated 1 hour, then 1 μM protofibrillar Aβ42 for 2 hours
  Aβ42-induced decrease in basal synaptic transmission: prevented
[1]; VO-OHpic alone, no Aβ
  basal synaptic transmission, inhibitor alone: no effect
